In patent US9434701B2, “Aminoquinoxaline derivatives for treatment of neurodegenerative diseases” (CENTRE NATIONAL DE LA RECHERCHE SCIENTIFIQUE (CNRS), priority 2011, dated 2016):

Experiments:
[1] = passage of the blood-brain barrier, per os study: brain extract by HPLC-MS/MS; type: in vivo, Rj Orl: SWISS mice; settings: per os 150 mg/kg twice daily 4 days + last treatment day 5; euthanized 4 h to 6 h 40 after last treatment
Procedure: Male Rj Orl: SWISS, mice, approximately 5 weeks old and weighing between 20 and 24 g at arrival (R Janvier Breeding Center, France) were kept in the animal room at constant temperature (22±1° C.) and controlled humidity (55±20%), with a 12-hour light/dark cycle (8:00 a.m.-8:00 p.m.). During the acclimation and study period, the mice had free access to food and water. All the experiments were conducted in compliance with the conditions of decree 2001-464 of May 29, 2001 relative to animal experimentation.
The solution of compound 4bc at the concentration of 15.0 g/L to be administered was prepared in the following carrier: 0.5% Tween 80+99.5% carboxymethyl cellulose at 1%, in 0.9% NaCl in water.
Three groups were created: • mice who received the carrier orally at 10 mL/kg (Group V, n=4), • mice treated with compound 4bc orally at 150 mg/kg and at 10 mL/kg (Group T, n=6), • control mice who received no treatment (n=2). All the mice were treated or received the carrier twice daily for 4 days. On the 5th day, a last treatment was administered and the animals were euthanized between […]. after this last treatment according to the following plan: […]
Detection and quantification, based on peak area, were done by HPLC-MS/MS in MRM mode.

[2] = test system: fetal dopaminergic neurons (TH+) in culture; experiment: dopaminergic neuron spontaneous degeneration model, second protocol (Mourlevat et al.), TH+ neuron count after 10 days; type: cell-based; settings: Rattus norvegicus, 240 h, effect at 100 μM, 10 days of culture, read-out: TH+ neurons in % of control ± Std. Err.
Procedure: This second protocol is described in the article by Mourlevat, P. P. Michel et al. Molecular Pharmacology 2003, 64:578-586 (“Prevention of Dopaminergic Neuronal Death by Cyclic AMP in Mixed Neuronal/Glial Mesencephalic Cultures Requires the Repression of Presumptive Astrocytes”). […] Compounds according to the invention were evaluated at 50 μM except compound 4bc which was assessed at 100 μM.

Which “detection in brain samples” value [1] does the source give for Cc1nc2ccc(N)cc2nc1-c1ccccc1 [Compound 4bc] here?
Its value is “undetectable”.

What about the activity at 100 µM [2] of the same compound?
The activity at 100 µM was 139 ± 11%.
